This series is described as follows: Stability in acidic buffer at pH 1.0 in 37 degC. Type of series: physicochemical. The following applies: for Stability: buffer.

As usually defined, the half-life is how long it takes for the measured level to halve.

With `Cc1cn([C@@H]2O[C@H](CO)[C@H]3C[C@@H](CP(=O)(O)O)O[C@H]32)c(=O)[nH]c1=O`, the Stability result is recorded as “Stable”. Under “acidic buffer”, `Cc1cn([C@@H]2O[C@H](CO)[C@H]3O[C@@H](CP(=O)(O)O)O[C@H]32)c(=O)[nH]c1=O` gave a half-life of 98 h. For `Cc1cn([C@@H]2O[C@H](CO)[C@H]3O[C@@H](CP(=O)(O)O)C[C@H]32)c(=O)[nH]c1=O`, the Stability result was “Stable”.

Regarding `Cc1cn([C@@H]2O[C@H](CO)[C@H]3C[C@H](CP(=O)(O)O)O[C@H]32)c(=O)[nH]c1=O`, the Stability result was “Stable”.

(Values after ChEMBL document CHEMBL1138221, “Synthesis and evaluation of multisubstrate bicyclic pyrimidine nucleoside inhibitors of human thymidine phosphorylase” (J Med Chem, 2006).)
